Results on eleven molecules are retold here after paper PMC7475179, “Characterization of a caffeoyl-CoA O-methyltransferase-like enzyme involved in biosynthesis of polymethoxylated flavones in Citrus reticulata” (Journal of Experimental Botany, 2020).

This experiment relates to CrOMT1. The experiment in a line: MTase-Glo methyltransferase assay (SAH luminescence), Michaelis-Menten fit. The class given is biochemical, Citrus reticulata. The note with it: 2 mM SAM, 50 mM Tris-HCl pH 8.0, 37 °C, 30 min.

For `O=c1cc(-c2ccccc2)oc2c(O)c(O)ccc12` [7,8-dihydroxyflavone], the Km (8-O-methylation) worked out at 1.8 ± 0.4 µM.

In the case of `O=c1cc(-c2ccccc2)oc2cc(O)c(O)c(O)c12` [baicalein], the Km (6-O-methylation) is 3.3 ± 0.6 µM.

In the case of `C[C@@H]1O[C@@H](OC[C@H]2O[C@@H](Oc3cc(O)c4c(c3)O[C@H](c3ccc(O)c(O)c3)CC4=O)[C@H](O)[C@@H](O)[C@@H]2O)[C@H](O)[C@H](O)[C@H]1O` [eriocitrin, eriodictyol-7-O-rutinoside], the Km was 7.9 ± 1 µM.

With `O=C1C[C@@H](c2ccc(O)c(O)c2)Oc2cc(O)cc(O)c21` [eriodictyol], the Michaelis constant (Km) was found to be 61.8 ± 9.9 µM.

In the case of `O=c1c(O)c(-c2ccc(O)cc2)oc2cc(O)cc(O)c12` [kaempferol], the Km worked out at 248 µM.

For `O=c1cc(-c2ccc(O)c(O)c2)oc2cc(O)cc(O)c12` [luteolin, 5,7,3',4'-tetrahydroxyflavone], the Km (3'-O-methylation) worked out at 3.1 ± 0.6 µM.

On to `O=c1c(O)c(-c2cc(O)c(O)c(O)c2)oc2cc(O)cc(O)c12` [myricetin], for which the Km stood at 23.8 ± 4.3 µM.

Take `C[C@@H]1O[C@@H](O[C@H]2[C@H](Oc3cc(O)c4c(c3)O[C@H](c3ccc(O)c(O)c3)CC4=O)O[C@H](CO)[C@@H](O)[C@@H]2O)[C@H](O)[C@H](O)[C@H]1O` [neoeriocitrin, eriodictyol-7-O-neohesperidoside]: the Km amounted to 8.7 ± 1 µM.

Regarding `COc1c(-c2ccc(O)c(O)c2)oc2cc(O)cc(O)c2c1=O` [quercetin 3-methyl ether], the Km amounted to 3.9 ± 0.5 µM.

Turning to `O=c1c(O)c(-c2ccc(O)c(O)c2)oc2cc(O)cc(O)c12` [quercetin], the Km is 4.5 ± 0.8 µM.

For `O=c1cc(-c2cc(O)c(O)c(O)c2)oc2cc(O)cc(O)c12` [tricetin], the Km turned out to be 0.6 µM.

As usually defined, the Km is the concentration of substrate that gives half-maximal velocity.
